Measured values as given in article PMC6968685 (Journal of Enzyme Inhibition and Medicinal Chemistry, 2020).
Where a name gives a salt, the structure may show the parent alone. Read-outs that look alike come from different tables or passages of the source.

Key:
[1] = system: P. falciparum CQ-resistant strain W2; assay: In vitro antiplasmodial activity, SYBR Green I fluorescence-based method, strain W2; format: cell-based; details: Plasmodium falciparum, read-out: P. falciparum strains IC50 values, W2
Description: The in vitro antiplasmodial activities were tested over concentrations ranging from […] against culture-adapted P. falciparum reference strains 3D7 and W2. […] The parasites were cultivated in RPMI medium (Sigma-Aldrich, Lyon, France) supplemented with 0.5% Albumax I (Life Technologies Corporation, Paisley, UK), hypoxanthine (Sigma-Aldrich), and gentamicin (Sigma-Aldrich) with human erythrocytes and were incubated at 37 °C in a candle jar, as described previously[43] .The P. falciparum drug susceptibility test was carried out in 96-well flat-bottom sterile plates in a final volume of 250 µl. After 48 h incubation period with the drugs, quantities of DNA in treated and control cultures of parasites in human erythrocytes were quantified using the SYBR Green I (Sigma-Aldrich) fluorescence-based method[44]^,[45]. Briefly, after incubation, plates were frozen at −20 °C until use. Plates were then thawed for 2 h at room temperature, and 100 µl of each homogenised culture was transferred to a well of a 96-well flat-bottom sterile black plate (Nunc, Inc., Rochester, NY) that contained 100 µl of the SYBR Green I lysis buffer (2xSYBR Green, 20 mM Tris base pH 7.5, 5 mM EDTA, 0.008% w/v saponin, 0.08% w/v Triton X-100). […] Plates were incubated for 1 h at room temperature and then read on a fluorescence plate reader (Tecan, Grödig, Austria) using excitation and emission wavelengths of 485 and 535 nm, respectively. IC50 values were calculated by non-linear regression analysis of data from dose-response curves, using TableCurve 2D version 5.0 software (Systat Software, San Jose, CA). IC50 values are reported as means calculated from three independent experiments.

[2] = system: P. falciparum CQ-sensitive strain 3D7; assay: In vitro antiplasmodial activity, SYBR Green I fluorescence-based method, strain 3D7; format: cell-based; details: Plasmodium falciparum, read-out: P. falciparum strains IC50 values, 3D7
Outline: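 P. falciparum 3D7 and W2 cultured in human erythrocytes in RPMI with 0.5% Albumax I at 37 °C, exposed 48 h to compounds tested […]. Parasite DNA read by SYBR Green I fluorescence (ex 485/em 535 nm); IC50 by non-linear regression, mean of three independent experiments.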

[3] = system: Plasmodium telomeric sequence FPf1T G-quadruplex; assay: FRET melting experiments, FPf1T; format: binding, P. falciparum; details: K+ conditions
Description: (§1) These were performed with dual-labelled oligonucleotides mimicking the Plasmodium telomeric sequences FPf1T [FAM-5′(GGGTTTA)3-GGG3′-TAMRA] and FPf8T [FAM-5′ (GGGTTCA)3GGG3′-TAMRA], the Trypanosoma 9 and 11 chromosomic sequence FTrypBT (also named FEBR1T) [FAM-5′[…]3′-TAMRA], the human telomeric sequence F21T [FAM-(GGGTTA)3-GGG3′-TAMRA], and the human duplex sequence FdxT [FAM5′-[…]-hexaethyleneglycol-[…]3′-TAMRA][51]^,[52]. The oligonucleotides were pre-folded in 10 mM lithium cacodylate buffer (pH 7.2), with 10 mM KCl and 90 mM LiCl (K^+condition). The FAM emissions were recorded at 516 nm using a 492-nm excitation wavelength in the absence and presence of a single compound as a function of temperature (25–95 °C) in 96-well microplates by using a Stratagene MX3000P real-time PCR device at a rate of 1 °C·min^−1. Data were normalised between 0 and 1, and the required temperature for half-denaturation of oligonucleotides corresponding to the emission value of 0.5 was taken as the Tm. […] For each compound, three independent experiments were carried out.

[4] = system: Plasmodium telomeric sequence FPf8T G-quadruplex; assay: FRET melting experiments, FPf8T; format: binding, P. falciparum; details: K+ conditions
Description: as §1

[5] = system: human telomeric sequence F21T G-quadruplex; assay: FRET melting experiments, F21T; format: binding; details: K+ conditions
Description: as §1

[6] = system: Trypanosoma 9 and 11 chromosomic sequence FTrypBT (FEBR1T) G-quadruplex; assay: FRET melting experiments, FtrypBT; format: binding, T. brucei brucei; details: tested at 0.5 μM, K+ conditions
Description: as §1

[7] = system: human duplex sequence FdxT; assay: FRET melting experiments, FdxT duplex control; format: binding; details: tested at 0.5 μM, K+ conditions
Description: as §1

SMILES	melting point [°C]	other results
CN1CCN(CCCNCc2ccc(-c3nc(-c4ccc(CNCCCN5CCN(C)CC5)cc4)c4ccccc4n3)cc2)CC1 (as salt: (cooh)2) [Compound 3e, 2,4-Bis{4-[(3–(4-methylpiperazin-1-yl)propyl)aminomethyl]phenyl}quinazoline]	229 to 231	–
c1ccc2c(-c3ccc(CNCCCN4CCOCC4)cc3)nc(-c3ccc(CNCCCN4CCOCC4)cc3)nc2c1 (as salt: (cooh)2) [Compound 3f, 2,4-Bis{4-[(3-morpholinopropyl)aminomethyl]phenyl}quinazoline]	183 to 185	–
c1ccc2c(-c3ccc(CNCCN4CCOCC4)cc3)nc(-c3ccc(CNCCN4CCOCC4)cc3)nc2c1 (as salt: (cooh)2) [Compound 3g, 2,4-Bis{4-[(2-morpholinoethyl)aminomethyl]phenyl}quinazoline]	195 to 197	–
COc1ccc2nc(-c3ccc(CNCCCCN(C)C)cc3)nc(-c3ccc(CNCCCCN(C)C)cc3)c2c1 (as salt: (cooh)2) [Compound 3h, 6-Methoxy-2,4-bis{4-[(4-dimethylaminobutyl)aminomethyl]phenyl}quinazoline]	156 to 158	–
COc1ccc2nc(-c3ccc(CNCCCN(C)C)cc3)nc(-c3ccc(CNCCCN(C)C)cc3)c2c1 (as salt: (cooh)2) [Compound 3i, 6-Methoxy-2,4-bis{4-[(3-dimethylaminopropyl)aminomethyl]phenyl}quinazoline]	243 to 245	–
COc1ccc2nc(-c3ccc(CNCCN(C)C)cc3)nc(-c3ccc(CNCCN(C)C)cc3)c2c1 (as salt: (cooh)2) [Compound 3j, 6-Methoxy-2,4-bis{4-[(2-dimethylaminoethyl)aminomethyl]phenyl}quinazoline]	233 to 235	–
COc1ccc2nc(-c3ccc(CNCCCN4CCN(C)CC4)cc3)nc(-c3ccc(CNCCCN4CCN(C)CC4)cc3)c2c1 (as salt: (cooh)2) [Compound 3k, 6-Methoxy-2,4-bis{4-[(3–(4-methylpiperazin-1-yl)propyl)aminomethyl]phenyl}quinazoline]	227 to 229	–
COc1ccc2nc(-c3ccc(CNCCN4CCN(C)CC4)cc3)nc(-c3ccc(CNCCN4CCN(C)CC4)cc3)c2c1 (as salt: (cooh)2) [Compound 3l, 6-Methoxy-2,4-bis{4-[(2–(4-methylpiperazin-1-yl)ethyl)aminomethyl]phenyl}quinazoline]	229 to 231	–
COc1ccc2c(-c3ccc(CNCCCCN(C)C)cc3)nc(-c3ccc(CNCCCCN(C)C)cc3)nc2c1 (as salt: (cooh)2) [Compound 3m, 7-Methoxy-2,4-bis{4-[(4-dimethylaminobutyl)aminomethyl]phenyl}quinazoline]	216 to 218	–
COc1ccc2c(-c3ccc(CNCCCN(C)C)cc3)nc(-c3ccc(CNCCCN(C)C)cc3)nc2c1 (as salt: (cooh)2) [Compound 3n, 7-Methoxy-2,4-bis{4-[(3-dimethylaminopropyl)aminomethyl]phenyl}quinazoline]	223 to 225	–
COc1ccc2c(-c3ccc(CNCCN(C)C)cc3)nc(-c3ccc(CNCCN(C)C)cc3)nc2c1 (as salt: (cooh)2) [Compound 3o, 7-Methoxy-2,4-bis{4-[(2-dimethylaminoethyl)aminomethyl]phenyl}quinazoline]	234 to 236	–
COc1ccc2c(-c3ccc(CNCCCCN4CCN(C)CC4)cc3)nc(-c3ccc(CNCCCCN4CCN(C)CC4)cc3)nc2c1 (as salt: (cooh)2) [Compound 3p, 7-Methoxy-2,4-bis{4-[(4–(4-methylpiperazin-1-yl)butyl)aminomethyl]phenyl}quinazoline]	222 to 224	–
COc1ccc2c(-c3ccc(CNCCCN4CCN(C)CC4)cc3)nc(-c3ccc(CNCCCN4CCN(C)CC4)cc3)nc2c1 (as salt: (cooh)2) [Compound 3q, 7-Methoxy-2,4-bis{4-[(3–(4-methylpiperazin-1-yl)propyl)aminomethyl]phenyl}quinazoline]	229 to 231	–
COc1ccc2c(-c3ccc(CNCCN4CCN(C)CC4)cc3)nc(-c3ccc(CNCCN4CCN(C)CC4)cc3)nc2c1 (as salt: (cooh)2) [Compound 3r, 7-Methoxy-2,4-bis{4-[(2–(4-methylpiperazin-1-yl)ethyl)aminomethyl]phenyl}quinazoline]	238 to 240	–
CN(C)CCCNCc1cccc(-c2nc(-c3cccc(CNCCCN(C)C)c3)c3ccccc3n2)c1 (as salt: (cooh)2) [Compound 3s, 2,4-Bis{3-[(3-dimethylaminopropyl)aminomethyl]phenyl}quinazoline]	> 260	–
CN1CCN(CCCNCc2cccc(-c3nc(-c4cccc(CNCCCN5CCN(C)CC5)c4)c4ccccc4n3)c2)CC1 (as salt: (cooh)2) [Compound 3t, 2,4-Bis{3-[(3–(4-methylpiperazin-1-yl)propyl)aminomethyl]phenyl}quinazoline]	252 to 254	–
c1cc(CNCCCN2CCOCC2)cc(-c2nc(-c3cccc(CNCCCN4CCOCC4)c3)c3ccccc3n2)c1 (as salt: (cooh)2) [Compound 3u, 2,4-Bis{3-[(3-morpholinopropyl)aminomethyl]phenyl}quinazoline]	186 to 188	–
c1cc(CNCCN2CCOCC2)cc(-c2nc(-c3cccc(CNCCN4CCOCC4)c3)c3ccccc3n2)c1 (as salt: (cooh)2) [Compound 3v, 2,4-Bis{3-[(2-morpholinoethyl)aminomethyl]phenyl}quinazoline]	234 to 236	–
CCN(CC)CCCC(C)Nc1ccnc2cc(Cl)ccc12 (stereo not drawn) [Chloroquine, reference compound]	–	IC50 ([1]; W2, 48 h): 0.4 ± 0.04 µM; IC50 ([2]; 3D7, 48 h): 0.11 ± 0.01 µM; ΔTm FPf1T ([3]; tested at 1 μM): 1.9 ± 0.1 °C; ΔTm FPf8T ([4]; tested at 1 μM): 2.4 ± 1.2 °C; ΔTm F21T ([5]; tested at 1 μM): 2.4 ± 1.1 °C
OC(c1cc(C(F)(F)F)nc2c(C(F)(F)F)cccc12)C1CCCCN1 (stereo not drawn) [Mefloquine, reference compound]	–	IC50 ([1]; chloroquine-resistant strain W2, 48 h incubation): 0.016 ± 0.002 µM; IC50 ([2]; chloroquine-sensitive strain 3D7, 48 h incubation): 0.06 ± 0.003 µM; ΔTm FPf1T ([3]; tested at 1 μM): 3.1 ± 0.5 °C; ΔTm FPf8T ([4]; tested at 1 μM): 6.6 ± 2.3 °C; ΔTm F21T ([5]; tested at 1 μM): 2.6 ± 0.5 °C
C[n+]1cc(NC(=O)c2ccc3ccc4ccc(C(=O)Nc5cc6ccccc6[n+](C)c5)nc4c3n2)cc2ccccc21 [PhenDC3, reference compound]	–	ΔTm FPf1T ([3]; tested at 0.5 μM): 24.6 ± 0.1 °C; ΔTm FPf8T ([4]; tested at 0.5 μM): 24.7 ± 0.2 °C; ΔTm FtrypBT [6]: 19.2 ± 0.2 °C; ΔTm F21T ([5]; tested at 0.5 μM): 26.3 ± 0.1 °C; ΔTm FdxT [7]: 0.1 ± 0.2 °C
